Results: ChEMBL document CHEMBL3745645, “Synthesis, in vitro antitumor activity, dihydrofolate reductase inhibition, DNA intercalation and structure-activity relationship studies of 1,3,5-triazine analogues” (Bioorg Med Chem Lett, 2016)
The source made the active and inactive calls. The rule behind the calls is not given here.

What was measured:
Type in all cases: functional
SW-620 = experiment: Cytotoxicity against human SW620 cells at 10 uM after 48 hrs by SRB assay
[1] = Cytotoxicity against human OVCAR3 cells at 10 uM after 48 hrs by SRB assay; settings: OVCAR-3, 48 h, read-out: GI
SNB-75 = experiment: Cytotoxicity against human SNB75 cells at 10 uM after 48 hrs by SRB assay
SK-OV-3 = experiment: Cytotoxicity against human SKOV3 cells at 10 uM after 48 hrs by SRB assay
CCRF-CEM = experiment: Cytotoxicity against human CCRF-CEM cells at 10 uM after 48 hrs by SRB assay; settings: read-out: GI
[2] = Cytotoxicity against human LOXIMVI cells at 10 uM after 48 hrs by SRB assay; settings: LOX IMVI, read-out: GI
T47D = experiment: Cytotoxicity against human T47D cells at 10 uM after 48 hrs by SRB assay; settings: read-out: GI
[3] = Cytotoxicity against human HCT116 cells at 10 uM after 48 hrs by SRB assay; settings: HCT-116, 48 h, read-out: GI
Malme-3M = experiment: Cytotoxicity against human MALME-3M cells at 10 uM after 48 hrs by SRB assay
MDA-MB-468 = experiment: Cytotoxicity against human MDA-MB-468 cells at 10 uM after 48 hrs by SRB assay; settings: MDA-MB-468, 48 h, read-out: GI
ACHN = experiment: Cytotoxicity against human ACHN cells at 10 uM after 48 hrs by SRB assay; settings: read-out: GI
Hs-578T = experiment: Cytotoxicity against human Hs 578T cells at 10 uM after 48 hrs by SRB assay
[4] = Cytotoxicity against human DU145 cells at 10 uM after 48 hrs by SRB assay; settings: DU-145, 48 h, read-out: GI
MDA-MB-435 = experiment: Cytotoxicity against human MDA-MB-435 cells at 10 uM after 48 hrs by SRB assay; settings: MDA-MB-435, 48 h, read-out: GI
[5] = Cytotoxicity against human RXF393 cells at 10 uM after 48 hrs by SRB assay; settings: RXF 393, 48 h, read-out: GI
SK-MEL-2 = experiment: Cytotoxicity against human SK-MEL-2 cells at 10 uM after 48 hrs by SRB assay
CAKI-1 = experiment: Cytotoxicity against human Caki1 cells at 10 uM after 48 hrs by SRB assay
[6] = Cytotoxicity against human SF295 cells at 10 uM after 48 hrs by SRB assay; settings: SF-295, 48 h, read-out: GI
MDA-MB-231 = experiment: Cytotoxicity against human MDA-MB-231 cells at 10 uM after 48 hrs by SRB assay; settings: MDA-MB-231, 48 h, read-out: GI
NCI-H460 = experiment: Cytotoxicity against human NCI-H460 cells at 10 uM after 48 hrs by SRB assay; settings: NCI-H460, 48 h, read-out: GI
SNB-19 = experiment: Cytotoxicity against human SNB19 cells at 10 uM after 48 hrs by SRB assay
[7] = Cytotoxicity against human COLO205 cells at 10 uM after 48 hrs by SRB assay; settings: COLO 205, 48 h, read-out: GI
A549 = experiment: Cytotoxicity against human A549 cells at 10 uM after 48 hrs by SRB assay; settings: A549, 48 h, read-out: GI
NCI-H226 = experiment: Cytotoxicity against human NCI-H226 cells at 10 uM after 48 hrs by SRB assay; settings: NCI-H226, 48 h, read-out: GI
KM12 = experiment: Cytotoxicity against human KM12 cells at 10 uM after 48 hrs by SRB assay; settings: KM12, 48 h, read-out: GI
TK-10 = experiment: Cytotoxicity against human TK10 cells at 10 uM after 48 hrs by SRB assay
[8] = Cytotoxicity against human NCI-ADR-RES cells at 10 uM after 48 hrs by SRB assay; settings: read-out: GI
SR = experiment: Cytotoxicity against human SR cells at 10 uM after 48 hrs by SRB assay; settings: read-out: GI
U-251 = experiment: Cytotoxicity against human U251 cells at 10 uM after 48 hrs by SRB assay; settings: U-251, 48 h, read-out: GI
NCI-H522 = experiment: Cytotoxicity against human NCI-H522 cells at 10 uM after 48 hrs by SRB assay; settings: NCI-H522, 48 h, read-out: GI
[9] = Cytotoxicity against human UACC257 cells at 10 uM after 48 hrs by SRB assay; settings: UACC-257, 48 h, read-out: GI
HL-60(TB) = experiment: Cytotoxicity against human HL-60(TB) cells at 10 uM after 48 hrs by SRB assay
[10] = Cytotoxicity against human HOP62 cells at 10 uM after 48 hrs by SRB assay; settings: HOP-62, 48 h, read-out: GI
[11] = Cytotoxicity against human SF268 cells at 10 uM after 48 hrs by SRB assay; settings: SF-268, 48 h, read-out: GI
HCC 2998 = experiment: Cytotoxicity against human HCC2998 cells at 10 uM after 48 hrs by SRB assay
786-0 = experiment: Cytotoxicity against human 786-0 cells at 10 uM after 48 hrs by SRB assay; settings: 786-0, 48 h, read-out: GI
[12] = Cytotoxicity against human IGROV1 cells at 10 uM after 48 hrs by SRB assay; settings: IGROV-1, 48 h, read-out: GI
[13] = Cytotoxicity against human SF539 cells at 10 uM after 48 hrs by SRB assay; settings: SF-539, 48 h, read-out: GI
SK-MEL-5 = experiment: Cytotoxicity against human SK-MEL-5 cells at 10 uM after 48 hrs by SRB assay; settings: SK-MEL-5, 48 h, read-out: GI
SN12C = experiment: Cytotoxicity against human SN12C cells at 10 uM after 48 hrs by SRB assay; settings: read-out: GI
BT-549 = experiment: Cytotoxicity against human BT549 cells at 10 uM after 48 hrs by SRB assay
[14] = Cytotoxicity against human OVCAR4 cells at 10 uM after 48 hrs by SRB assay; settings: OVCAR-4, 48 h, read-out: GI
HT-29 = experiment: Cytotoxicity against human HT-29 cells at 10 uM after 48 hrs by SRB assay; settings: HT-29, 48 h, read-out: GI
M14 = experiment: Cytotoxicity against human M14 cells at 10 uM after 48 hrs by SRB assay; settings: M14, 48 h, read-out: GI
SK-MEL-28 = experiment: Cytotoxicity against human SK-MEL-28 cells at 10 uM after 48 hrs by SRB assay
[15] = Cytotoxicity against human RPMI8226 cells at 10 uM after 48 hrs by SRB assay; settings: RPMI-8226, 48 h, read-out: GI
[16] = Cytotoxicity against human HOP92 cells at 10 uM after 48 hrs by SRB assay; settings: HOP-92, 48 h, read-out: GI
[17] = Cytotoxicity against human OVCAR8 cells at 10 uM after 48 hrs by SRB assay; settings: OVCAR-8, 48 h, read-out: GI
OVCAR-5 = experiment: Cytotoxicity against human OVCAR5 cells at 10 uM after 48 hrs by SRB assay
HCT-15 = experiment: Cytotoxicity against human HCT15 cells at 10 uM after 48 hrs by SRB assay
NCI-H322M = experiment: Cytotoxicity against human NCI-H322M cells at 10 uM after 48 hrs by SRB assay; settings: read-out: GI
MCF7 = experiment: Cytotoxicity against human MCF7 cells at 10 uM after 48 hrs by SRB assay; settings: MCF7, 48 h, read-out: GI
K562 = experiment: Cytotoxicity against human K562 cells at 10 uM after 48 hrs by SRB assay; settings: K562, 48 h, read-out: GI
[18] = Cytotoxicity against human UO31 cells at 10 uM after 48 hrs by SRB assay; settings: UO-31, 48 h, read-out: GI
A498 = experiment: Cytotoxicity against human A498 cells at 10 uM after 48 hrs by SRB assay; settings: A498, 48 h, read-out: GI

## Cc1nc2cc(Nc3nc(NCCO)nc(Nc4ccc(F)cc4)n3)ccc2n1Cc1ccccc1
SW-620
  growth inhibition (GI): inactive
[1]
  inhibition of growth at 10 µM: 9.84%
SNB-75
  growth inhibition (GI): inactive
SK-OV-3
  growth inhibition (GI): inactive
CCRF-CEM
  inhibition of growth at 10 µM: 98.1%
[2]
  inhibition of growth at 10 µM: 18.1%
T47D
  inhibition of growth at 10 µM: 34.7%
[3]
  inhibition of growth at 10 µM: 23.4%
Malme-3M
  growth inhibition (GI): inactive
MDA-MB-468
  inhibition of growth at 10 µM: 0.84%
ACHN
  inhibition of growth at 10 µM: 1.72%
Hs-578T
  growth inhibition (GI): inactive
[4]
  inhibition of growth at 10 µM: 11.5%
MDA-MB-435
  inhibition of growth at 10 µM: 8.37%
[5]
  inhibition of growth at 10 µM: 9.82%
SK-MEL-2
  growth inhibition (GI): inactive
CAKI-1
  growth inhibition (GI): inactive
[6]
  inhibition of growth at 10 µM: 13.6%
MDA-MB-231
  inhibition of growth at 10 µM: 19.7%
NCI-H460
  inhibition of growth at 10 µM: 16.5%
SNB-19
  growth inhibition (GI): inactive
[7]
  inhibition of growth at 10 µM: 5.46%
A549
  inhibition of growth at 10 µM: 25.9%
NCI-H226
  inhibition of growth at 10 µM: 8.37%
KM12
  inhibition of growth at 10 µM: 19.7%
TK-10
  growth inhibition (GI): inactive
[8]
  inhibition of growth at 10 µM: 2.28%
SR
  inhibition of growth at 10 µM: 85.1%
U-251
  inhibition of growth at 10 µM: 13.7%
NCI-H522
  inhibition of growth at 10 µM: 14.3%
[9]
  inhibition of growth at 10 µM: 1.2%
HL-60(TB)
  growth inhibition (GI): Active
[10]
  inhibition of growth at 10 µM: 6.05%
[11]
  inhibition of growth at 10 µM: 7.77%
HCC 2998
  growth inhibition (GI): inactive
786-0
  inhibition of growth at 10 µM: 5.33%
[12]
  inhibition of growth at 10 µM: 11.1%
[13]
  inhibition of growth at 10 µM: 5.61%
SK-MEL-5
  inhibition of growth at 10 µM: 19.7%
SN12C
  inhibition of growth at 10 µM: 8.89%
BT-549
  growth inhibition (GI): inactive
[14]
  inhibition of growth at 10 µM: 4.73%
HT-29
  inhibition of growth at 10 µM: 28.1%
M14
  inhibition of growth at 10 µM: 6.95%
SK-MEL-28
  growth inhibition (GI): inactive
[15]
  inhibition of growth at 10 µM: 85.8%
[16]
  inhibition of growth at 10 µM: 50.1%
[17]
  inhibition of growth at 10 µM: 20%
OVCAR-5
  growth inhibition (GI): inactive
HCT-15
  growth inhibition (GI): inactive
NCI-H322M
  inhibition of growth at 10 µM: 1.09%
MCF7
  inhibition of growth at 10 µM: 8.72%
K562
  inhibition of growth at 10 µM: 80.8%
[18]
  inhibition of growth at 10 µM: 21.2%
A498
  inhibition of growth at 10 µM: 33.8%
